According to paper PMC7898822, “RNA‐PROTACs: Degraders of RNA‐Binding Proteins” (Angewandte Chemie (International Ed. in English), 2020):

Tested on: Lin28B
Experiment: Western blot of Lin28B in K562 cells
Format: cell-based, human
Details: 48 h
Source text: Finally, we tested RNA‐PROTACs for their ability to degrade their target in two cell lines: the embryonic NT2/D1 cell line, which expresses high levels of Lin28A, ^[13a] and K562 cells which express Lin28A and Lin28B. […] Suppression of the target was not quantitative, as is often observed from testing PROTAC reagents without an optimization of the targeting ligand, the linker and the E3 system. Furthermore, there was no statistical difference in the activity of the 7‐mer and 11‐mer reagents. […] The reagents had no discernible effect on cell toxicity (Figure S11). […] Finally, we co‐treated K562 cells with ORN3P1 and MG132, a reversible inhibitor of the 26S proteasome. […]
oligonucleotides ([…]) into 15N-labeled Lin28-ZnF12 in 10 mM HEPES pH 7.0, 1.5 mM β-mercaptoethanol, 0.15 mM ZnCl2 and monitored by 1H-15N-HSQC at 303K.
Fluorescence Polarization Assay. Fluorescence polarization titration assay was carried out by titrating Lin28_ZKD protein into FAM-labeled PreE-let-7 at a 10 nM final concentration and buffer (10 mM HEPES, 150 mM NaCl, 10 µM ZiCl2, pH 7,4). […] The fluorescence anisotropy was measured on a Spectra Max Paradigm multimode plate reader (Molecular Devices). The fluorescence polarization competition assay was carried out in a similar fashion, except compounds were titrated into buffer containing Lin28_ZKD and FAM-labeled preE-let-7. […]

CC[C@H](C)[C@H](NC(=O)[C@H](Cc1ccc(O)cc1)NC(=O)[C@@H]1C[C@@H](O)CN1C(=O)[C@H](C)NC(=O)[C@H](CC(C)C)NC(=O)CCCCCNC(=O)[C@@H](N)CSC1CC(=O)N(CCOP(=O)(S)OC[C@H]2O[C@@H](n3cnc4c(N)ncnc43)[C@H](OCCOC)[C@@H]2OP(=O)(S)OC[C@H]2O[C@@H](n3cnc4c(=O)[nH]c(N)nc43)[C@H](OCCOC)[C@@H]2OP(=O)(S)OC[C@H]2O[C@@H](n3cnc4c(=O)[nH]c(N)nc43)[C@H](OCCOC)[C@@H]2OP(=O)(S)OC[C@H]2O[C@@H](n3cnc4c(N)ncnc43)[C@H](OCCOC)[C@@H]2OP(=O)(S)OC[C@H]2O[C@@H](n3cnc4c(=O)[nH]c(N)nc43)[C@H](OCCOC)[C@@H]2OP(=O)(S)OC[C@H]2O[C@@H](n3cnc4c(N)ncnc43)[C@H](OCCOC)[C@@H]2OP(=O)(S)OC[C@H]2O[C@@H](n3cc(C)c(=O)[nH]c3=O)[C@H](OCCOC)[C@@H]2O)C1=O)C(=O)O (stereo partly shown) [ORN3P1]
effect on Lin28B: little effect on Lin28B
